Experimental data from ChEMBL document CHEMBL4390668, “Discovery and Structural Optimization of Acridones as Broad-Spectrum Antimalarials” (J Med Chem, 2019).
Activity calls are given as the source filed them. The rule behind the calls is not given here.

What was measured:
[1] = system: Plasmodium berghei; test: Antimalarial activity against luciferase-expressing Plasmodium berghei ANKA 676m1cl1 sporozoites infected in human HepG2A16 cells measured after 45 hrs by luciferase-luciferin based reporter assay; format: functional, organism-based; details: ANKA 676m1cl1, HepG2A16, 45 h
[2] = Half life in human liver microsomes at 1 uM by LC-MS analysis; format: ADME, Microsome
[3] = Selectivity index, ratio of IC50 for human HepG2 cells to IC50 for chloroquine-sensitive Plasmodium falciparum D6 infected in human erythrocytes; format: toxicity, cell-based; details: read-out: Ratio IC50
[4] = system: Plasmodium falciparum; test: Antimalarial activity against chloroquine-sensitive Plasmodium falciparum D6 infected in human erythrocytes by SYBR green 1-based fluorescence assay; format: functional, organism-based
[5] = system: HepG2; test: Cytotoxicity against human HepG2 cells measured after 24 to 36 hrs by resazurin dye based fluorescence assay; format: cell-based
[6] = system: Plasmodium falciparum; test: Antimalarial activity against multidrug-resistant Plasmodium falciparum Dd2 infected in human erythrocytes by SYBR green 1-based fluorescence assay; format: functional, organism-based
[7] = system: Plasmodium falciparum; test: Antimalarial activity against multidrug-resistant Plasmodium falciparum 7G8 infected in human erythrocytes by SYBR green 1-based fluorescence assay; format: functional, organism-based
[8] = Half life in mouse liver microsomes at 1 uM by LC-MS analysis; format: ADME, Microsome
[9] = system: Plasmodium falciparum; test: Antimalarial activity against atovaquone-resistant Plasmodium falciparum Tm90-C2B infected in human erythrocytes by SYBR green 1-based fluorescence assay; format: functional, organism-based
[10] = system: Plasmodium falciparum; test: Antimalarial activity against drug-resistant Plasmodium falciparum 3D7 harboring A82T/V259L double mutant infected in human erythrocytes after 72 hrs by SYBR green 1-based fluorescence assay; format: functional, organism-based; details: 3D7, 72 h
[11] = system: Plasmodium yoelii; test: Antimalarial activity against blood stage Plasmodium yoelii MR4 MRA-428 infected in CF1 mouse assessed as suppression of parasitemia administered once daily via oral gavage for 4 days starting from 24 hrs post-infection and measured post-last dose by Giemsa-staining based microscopic analysis; format: functional
[12] = system: Plasmodium falciparum; test: Antimalarial activity against Plasmodium falciparum 3D7 infected in human erythrocytes after 72 hrs by SYBR green 1-based fluorescence assay; format: functional, organism-based; details: 3D7, 72 h
[13] = system: Plasmodium falciparum; test: Inhibition of Plasmodium falciparum cytochrome b-c1
[14] = system: Plasmodium falciparum; test: Antimalarial activity against drug-resistant Plasmodium falciparum Dd2 harboring M133I/A138T double mutant infected in human erythrocytes after 72 hrs by SYBR green 1-based fluorescence assay; format: functional, organism-based; details: Dd2, 72 h
[15] = system: Plasmodium falciparum; test: Antimalarial activity against drug-resistant Plasmodium falciparum Dd2 harboring V259L mutant infected in human erythrocytes after 72 hrs by SYBR green 1-based fluorescence assay; format: functional, organism-based; details: Dd2, 72 h
[16] = system: Plasmodium falciparum; test: Antimalarial activity against drug-resistant Plasmodium falciparum Dd2 harboring M133I mutant infected in human erythrocytes after 72 hrs by SYBR green 1-based fluorescence assay; format: functional, organism-based; details: Dd2, 72 h
[17] = Mutagenicity in Salmonella typhimurium TA100 assessed as increase in revertant colonies up to 10 uM in absence of S9 fraction by Ames test; format: toxicity; details: salmonella enterica subsp. enterica serovar typhimurium
[18] = target: hERG (KCNH2) (Homo sapiens, UniProt Q12809); test: Inhibition of human ERG expressed in CHOK1 cells at 10 uM by automated patch clamp method relative to control; format: cell-based; details: CHO-K1 cells that express hERG
[19] = Mutagenicity in Salmonella typhimurium TA98 assessed as increase in revertant colonies up to 10 uM in absence of S9 fraction by Ames test; format: toxicity; details: salmonella enterica subsp. enterica serovar typhimurium
[20] = Mutagenicity in Salmonella typhimurium TA98 assessed as increase in revertant colonies up to 10 uM in presence of S9 fraction by Ames test; format: toxicity, subcellular; details: salmonella enterica subsp. enterica serovar typhimurium
[21] = Mutagenicity in Salmonella typhimurium TA100 assessed as increase in revertant colonies up to 10 uM in presence of S9 fraction by Ames test; format: toxicity, subcellular; details: salmonella enterica subsp. enterica serovar typhimurium

hERG (KCNH2), sequence (Q12809 whole entry): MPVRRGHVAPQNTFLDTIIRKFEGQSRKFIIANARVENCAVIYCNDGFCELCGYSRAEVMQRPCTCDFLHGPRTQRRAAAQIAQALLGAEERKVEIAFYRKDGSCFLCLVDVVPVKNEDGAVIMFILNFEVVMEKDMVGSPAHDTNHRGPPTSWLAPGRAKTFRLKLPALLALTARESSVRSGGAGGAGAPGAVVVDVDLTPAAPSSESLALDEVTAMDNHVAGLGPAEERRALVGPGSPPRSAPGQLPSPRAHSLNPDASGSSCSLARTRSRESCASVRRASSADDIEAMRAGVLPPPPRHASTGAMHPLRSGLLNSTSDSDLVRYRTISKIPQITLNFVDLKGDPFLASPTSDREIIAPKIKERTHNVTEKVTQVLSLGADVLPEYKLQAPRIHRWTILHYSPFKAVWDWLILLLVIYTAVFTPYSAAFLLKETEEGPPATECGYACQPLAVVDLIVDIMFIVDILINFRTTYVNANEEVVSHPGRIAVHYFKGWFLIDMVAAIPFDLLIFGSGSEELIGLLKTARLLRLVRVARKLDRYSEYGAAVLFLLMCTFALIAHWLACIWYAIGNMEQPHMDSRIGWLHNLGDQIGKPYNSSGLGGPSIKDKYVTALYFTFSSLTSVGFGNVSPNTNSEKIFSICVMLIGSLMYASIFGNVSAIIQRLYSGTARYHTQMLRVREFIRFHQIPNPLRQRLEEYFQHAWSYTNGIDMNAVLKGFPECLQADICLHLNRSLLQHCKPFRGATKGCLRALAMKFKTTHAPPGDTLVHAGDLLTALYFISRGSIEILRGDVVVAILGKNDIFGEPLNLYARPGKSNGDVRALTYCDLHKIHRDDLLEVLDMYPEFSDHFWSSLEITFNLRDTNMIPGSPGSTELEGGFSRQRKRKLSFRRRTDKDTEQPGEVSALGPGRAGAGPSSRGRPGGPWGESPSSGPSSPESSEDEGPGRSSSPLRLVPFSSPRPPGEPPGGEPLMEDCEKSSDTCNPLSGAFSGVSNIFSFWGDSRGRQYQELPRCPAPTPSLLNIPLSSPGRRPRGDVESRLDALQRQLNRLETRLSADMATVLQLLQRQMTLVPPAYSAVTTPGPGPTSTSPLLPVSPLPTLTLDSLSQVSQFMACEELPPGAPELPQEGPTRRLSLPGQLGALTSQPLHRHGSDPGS

Structure (SMILES) | IC50 [1] | half-life at 1 µM [2] | selectivity ratio [3] | IC50 [4] | IC50 [5] | IC50 [6] | IC50 [7] | half-life at 1 µM [8] | IC50 [9] | inhibition [13] | IC50 [14] | IC50 [15] | also measured
CCN(CC)CCCOc1ccc2c(=O)c3ccc(Cl)cc3[nH]c2c1 | 436 nM | > 60 min | 72 | 272 nM | 19700 nM | 254 nM | 294 nM | 34 min | 1890 nM | – | – | – | –
CCN(CC)CCOc1ccc2c(=O)c3c(Cl)cc(Cl)cc3[nH]c2c1 | – | – | 1630 | 8.2 nM | 13400 nM | 22 to 31 nM | 21 nM | – | 465 nM | inactive | 1080 nM | 668 nM | IC50 [10]: 612 nM; ED50 [11]: 3.09 mg/kg.day; ED90 [11]: 50.2 mg/kg.day; IC50 [12]: 16 nM
CCN(CC)CCCC(C)Nc1c2ccc(Cl)cc2nc2ccc(OC)cc12 (stereo not given) [QUINACRINE] | – | – | – | – | – | 29 nM | – | – | – | inactive | 29 nM | 18 nM | IC50 [16]: 23 nM
CCCN(CCC)CCOc1ccc2c(=O)c3c(Cl)cc(OC)cc3[nH]c2c1 | 2.9 nM | 7 min | > 308000 | 0.65 nM | > 200000 nM | 4.2 nM | 6.2 nM | 10 min | 81 nM | – | – | – | –
O=c1c2ccc(OCCCCl)cc2[nH]c2ccc(Cl)c(Cl)c12 | – | – | > 31200 | 3.2 nM | > 100000 nM | 17 to 22 nM | 3.1 nM | – | 1040 nM | inactive | 324 nM | 551 nM | IC50 [10]: 605 nM; IC50 [12]: 11.1 nM
O=c1c2ccc(OCCN(CCC(F)(F)F)CCC(F)(F)F)cc2[nH]c2cc(F)cc(F)c12 | 0.09 nM | 20 min | > 100000 | 0.002 nM | > 100000 nM | 0.015 nM | 0.016 nM | 33 min | 2 nM | – | – | – | ED50 [11]: 0.66 mg/kg.day; ED90 [11]: 2.53 mg/kg.day; Activity [17]: Non-Toxic; inhibition at 10 µM [18]: 17%; Activity [19]: Non-Toxic; Activity [20]: Non-Toxic; Activity [21]: Non-Toxic
CC(C)(C)NCCCCOc1ccc2c(=O)c3c(F)cc(F)cc3[nH]c2c1 | 362 nM | > 60 min | 1350 | 75 nM | 101000 nM | 265 nM | 14 nM | > 60 min | > 2500 nM | – | – | – | –
CCN(CC)CCOc1ccc2c(=O)c3ccc(F)cc3[nH]c2c1 | 119 nM | > 60 min | 127 | 377 nM | 47900 nM | 485 nM | 353 nM | > 60 min | 1670 nM | – | – | – | –
O=c1c2ccc(OCCCl)cc2[nH]c2ccc(Cl)c(Cl)c12 | 183 nM | > 60 min | > 40000 | 2.5 nM | > 100000 nM | 27 nM | 45 nM | > 60 min | 1380 nM | – | – | – | –
CCN(CC)CCCC(C)Nc1ccnc2cc(Cl)ccc12 (stereo not given) [CHLOROQUINE] | – | – | – | – | – | – | – | – | – | inactive | – | 260 nM | –
O=c1c2ccc(OCCNC34CC5CC(CC(C5)C3)C4)cc2[nH]c2ccc(Cl)c(Cl)c12 | 86 nM | – | 333 | 30 nM | 10000 nM | 77 to 390 nM | 176 nM | – | 163 nM | inactive | – | 1100 nM | –
O[C@@H](c1cc(C(F)(F)F)nc2c(C(F)(F)F)cccc12)[C@H]1CCCCN1 [(S,R)-MEFLOQUINE] | – | – | – | – | – | 18 nM | – | – | – | inactive | 13 nM | 23 nM | IC50 [16]: 14 nM
CCCN(CCC)CCOc1ccc2c(=O)c3cc(Cl)ccc3[nH]c2c1 | 12.5 nM | 12 min | > 27800 | 3.6 nM | > 100000 nM | 15 nM | 9.2 nM | 16 min | 317 nM | – | – | – | –
